{"source": "patent US6525027B2", "about": "“Use of ribose supplementation for increasing muscle mass and decreasing body fat in humans” (Bioenergy Inc., priority 2000, dated 2003)", "type_in_all_cases": "in vivo, humans", "key": {"[1]": {"experiment": "Skinfold test, % body fat, before and after 10 weeks of weight training with supplementation", "method": "(§1) The study subjects were healthy males, ages 18 to 40, with previous weight training experience. […] Pages 111-112.\n(§2) The duration of the study was 10 weeks and included a supplementation regime of D-Ribose or D-Glucose as placebo control, combined with resistance weight training. The subjects were divided into two matched groups, four subjects received D-Ribose and two subjects received placebo.\n(§3) Baseline testing was conducted before training and supplementation. Prior to any testing the subjects were required to read and sign an informed consent document. Subject information to be collected prior to the start of the exercise regimen included age, height, weight, body composition and performance measures. The body composition was determined by hydrostatic weighing and skinfold measurements to determine beginning percentage muscle mass and percentage body fat.\n(§4) There were four training sessions per week. At each training session, the subject was accompanied by a supervisor to ensure proper lifting technique, safety and efficiency of the training session. D-Ribose or placebo at a dose of 5 gm was taken one-half hour before and one-half after the training session. On the three days per week when the subjects were not trained, the subjects were allowed to consume the supplement at their convenience. Dietary recalls were also kept on Tuesday, Wednesday and Thursday of each week, but not dietary requirements were imposed.\n(§5) The lifting sessions were designed to exercise mainly the largest muscles of the body, that is, arm, leg, abdominals and back. All lifting sessions were preceded by warm-up sets of 20 repetitions at low weights. After week 4, the weight to be lifted was increased when the subject was able to do the maximum number of reps for all three sets. There was a 2-minute rest between each set and a 5 minute rest between each exercise. The lifting sessions were as follows:\n(§6) Following the training period of 10 weeks, the subjects were tested as for the pre-testing procedure. […]"}, "[2]": {"experiment": "Change in body weight after 10 weeks of training", "conditions": "placebo group remained the same", "method": "as §1, §2, §3\nas §4, with “Dietary recalls were also kept on Tuesday, Wednesday and Thursday of each week, but not dietary requirements were imposed.” left out"}, "[3]": {"experiment": "Underwater weight test (hydrostatic weighing), % body fat, before and after 10 weeks of weight training with supplementation", "method": "as §1, §2, §3, §4, §5, §6"}, "[4]": {"experiment": "Performance measures: maximum weight lifted once (1RM), bench press and squat, after 10 weeks of training", "excerpt": "as §1, §2\nInitial performance measures were individualized to each subject. The maximum weight each subject could lift once (1RM) was determined for the bench press and the squat lift. The maximal repetitions that each subject was able to lift of their own body weight was determined. Each subject performed as many repetitions as possible, followed by a one-minute rest and then repeated. The sets were continued until no weight could be lifted, limited by a maximum of 10 sets.\nas §4, with “Dietary recalls were also kept on Tuesday, Wednesday and Thursday of each week, but not dietary requirements were imposed.” left out"}, "[5]": {"conditions": "group average of four subjects, post compared to pre-training"}, "[6]": {"conditions": "individual subjects, after 10 weeks of weight training, 5 gm before and after each session"}, "[7]": {"conditions": "individual subjects, post training compared to pre-training"}, "[8]": {"conditions": "individual subjects, pre-training baseline"}}, "note": "“And” between values parts separate entries of the source, which are not always exact repeats. Equal entries are not always repeated."}
{"smiles": "O=C[C@H](O)[C@H](O)[C@H](O)CO", "note": "[Ribose, D-Ribose]", "values": [{"measurement": "Skinfold Test, % Body Fat, Difference, Average", "setting": "[1]; [5]", "result": "−3.1", "unit": "%"}, {"measurement": "Skinfold Test, % Body Fat, Post", "setting": "[1]; [6]", "result": "26.2% and 14.2% and 18.0% and 11.5%"}, {"measurement": "Skinfold Test, % Body Fat, Difference", "setting": "[1]; [7]", "result": "−2.8% and −2.4% and −3.7% and −3.3%"}, {"measurement": "Skinfold Test, % Body Fat, Pre", "setting": "[1]; [8]", "result": "29.0% and 16.6% and 21.7% and 14.8%"}, {"measurement": "Decrease in subcutaneous body fat (skinfold test) compared with placebo", "setting": "[1]; ten week period, in words", "result": "greater decrease in body fat"}, {"measurement": "Average increase in body weight", "setting": "[2]", "result": 3.4, "unit": "pounds"}, {"measurement": "Underwater Weight Test, % body fat, Difference, Average", "setting": "[3]; [5]", "result": "−1.3", "unit": "%"}, {"measurement": "Underwater Weight Test, % body fat, Post", "setting": "[3]; [6]", "result": "18.5% and 23.6% and 12.5% and 27.8%"}, {"measurement": "Underwater Weight Test, % body fat, Difference", "setting": "[3]; [7]", "result": "+0.8% and −1.1% and −5.0% and −21.9%"}, {"measurement": "Underwater Weight Test, % body fat, Pre", "setting": "[3]; [8]", "result": "17.7% and 22.5% and 17.5% and 29.7%"}, {"measurement": "Decrease in total body fat (underwater weight test) compared with placebo", "setting": "[3]; ten week period, in words", "result": "greater decrease in body fat"}, {"measurement": "Increase in 1 RM Squat re-test", "setting": "[4]; placebo group 12 pounds", "result": 45.5, "unit": "pounds"}, {"measurement": "Increase in weight lifted once in the bench press (1RM)", "setting": "[4]; placebo group improved by 10 pounds", "result": 10.5, "unit": "pounds"}]}
